Assay [1] has as its target T1, HCV RNA-dependent RNA polymerase (Hepatitis C virus genotype 1a, UniProt P27958).
T1 construct: HCV RNA-dependent RNA polymerase is encoded in the NS5B (nonstructural protein 5B) region of HCV; made in house; host or cells: insect cells or E. coli
In words: Time course of HCV RdRp inhibitory effect against pre-incubation time and temperature (Examinations 3 and 4). The format is biochemical. Conditions: for Influence of pre-incubation time on inhibitory effect (FIG. 5): pre-incubation time 0 to 180 min; for Influence of pre-incubation on inhibitory effect at 2° C., 20° C. and 25° C. (FIG. 6, FIG. 7): pre-incubation at any temperature. The method, then:
In the screening for HCV RNA-dependent RNA polymerase inhibitor, there is a dissociation of inhibitory effect as a different point between an assay method of the present invention and a prior assay method. […] Therefore, the influence of pre-incubation on the inhibitory value of enzyme inhibitor was determined. Using several compounds which evaluated RdRp inhibition in the prior assay method, the time course of HCV RdRp inhibitory effect was determined for 0 min, 15 min, 30 min, 45 min, 60 min, 90 min, 120 min, 150 min and 180 min as a pre-incubation time (FIG. 5).
Influence of pre-incubation on inhibitory value of enzyme inhibitor was determined in Examination 3. The temperature of pre-incubation in Examination 3 was changed and the time course of inhibitory effect was determined at variant temperature of pre-incubation.
Using several compounds, 3′-dUTP, compound I-1 and compound C, which evaluated RdRp inhibition in the prior assay method, the time course of HCV RdRp inhibitory effect was determined at 2° C., 20° C. and 25° C. as a pre-incubation temperature for 0 min, 20 min, 40 min, 60 min, 80 min, and 100 min as a pre-incubation time (FIG. 6, FIG. 7, FIG. 8).

Assay [2] concerns the target T1, HCV RNA-dependent RNA polymerase. In words: DIG-UTP assay without radioisotope-labeled substrate, with pre-incubation (Example 2). It counts as biochemical. Conditions: pre-incubation 25° C. 1 hr, I-1 0.5 μg/ml, 3′-dUTP 0.7 μM, A 100 μg/ml, B 50 μg/ml, C 25 μg/ml. The method, then: In Example 1, ^3H-UTP, that is UTP labeled with tritium as radioisotope was used as substrate in the assay with pre-incubation using HCV RNA-dependent RNA polymerase. Herein, digoxigenin-labeled UTP (DIG-UTP) instead of ^3H-UTP was used as substrate in the assay with pre-incubation using HCV RNA-dependent RNA polymerase. • 1) Streptavidin (1 mg/ml) was dissolved in the phosphate buffer saline (PBS) containing NaCl (0.137 M), KCl (2.68 mM), potassium dihydrogenphosphate (1.47 mM) and sodium phosphate (8.06 mM). • 2) The streptavidin solution was diluted 25-fold with the carbonate buffer containing sodium carbonate (0.9 M) and sodium hydrogencarbonate (0.1 M). • 3) The 25-fold streptavidin solution (50 μl/well) was transferred to a well of 96 wells-microtiter palate with flat bottom for immunoassay and then the plate was kept at 4° C. over night. • 4) After the 96 wells-microtiter plate was coated with streptavidin, the well was washed twice by adding, mixing and draining PBS (200 μl/well). • 5) The skim milk dissolved with PBS (1%, 300 μl) was transferred into each well and was kept at room temperature for 30 min. • 6) After the plate was washed once with PBS (200 μl/well), the well was filled with PBS (300 μl/well) and then the plate was stored at 4° C. • 7) After the PBS was drained from the streptavidin-coated plate stored under the condition described in 6), the well was washed once with PBS (200 μl/well) and was filled with de-ionized water (300 μl/well). • 8) The buffer I (10 μl) containing Tris-HCl (100 mM, pH 7.5), MgCl2 (25 mM), dithiothreitol (5 mM), KCl (125 mM) and ethylenediaminetetraacetic acid (5 mM) was transferred to a polypropylene tube and then poly(A) solution (6.25 μg/ml, 10 μl), biotin-labeled oligo(U)12 solution (3 μg/ml, 10 μl), water (10 μl) and HCV RNA-dependent RNA polymerase solution (10 μl) were added into the tube and mixed calmly. • 9) De-ionized water was drained from the plate described in 7), and the solution (50 μl/well) at once after the mixing described in 8) was transferred to each well. After mixing by a plate mixer, the solution was pre-incubated at 25° C. for 1 hr. • 10) On the other hand, the buffer I (10 μl) was transferred into another tube, and UTP (1 μM, 10 μl), DIG-UTP (300 μM, 1 μl), water (24 μl) and a test compound dissolved with dimethyl sulfoxide or water (5 μl) were added to the tube and mixed calmly. Concentrations of the compounds used were as follows.
• 11) The mixed solution (50 μl/well) described in 10) was transferred into each well after the pre-incubation described in 9), mixed by a plate mixer and then incubated at 25° C. for 1 hr. • 12) When the enzyme reaction was in 1 hr, the enzyme reaction was stopped by adding ethylenediaminetetraacetic acid (0.1 M, 50 μl/well). • 13) The plate was washed twice with PBS (200 μl/well) after end of the enzyme reaction. • 14) Next, alkaline phosphatase-labeled anti-DIG antibody (3 U/ml, 100 μl/well) diluted 250-fold with PBS containing skim milk (0.5%) was transferred each well. […] The substrate solution was transferred into each well of the plate, mixed by a plate mixer and then incubated at 25° C. for 1 hr until the color appears in the solution. • 17) The plate was set on a plate reader and the absorbance was measured at 405 nm. • 18) The inhibitory rate was calculated from the optical density (unit; OD) measured as follows. […]

T1 sequence (P27958 2421-3011): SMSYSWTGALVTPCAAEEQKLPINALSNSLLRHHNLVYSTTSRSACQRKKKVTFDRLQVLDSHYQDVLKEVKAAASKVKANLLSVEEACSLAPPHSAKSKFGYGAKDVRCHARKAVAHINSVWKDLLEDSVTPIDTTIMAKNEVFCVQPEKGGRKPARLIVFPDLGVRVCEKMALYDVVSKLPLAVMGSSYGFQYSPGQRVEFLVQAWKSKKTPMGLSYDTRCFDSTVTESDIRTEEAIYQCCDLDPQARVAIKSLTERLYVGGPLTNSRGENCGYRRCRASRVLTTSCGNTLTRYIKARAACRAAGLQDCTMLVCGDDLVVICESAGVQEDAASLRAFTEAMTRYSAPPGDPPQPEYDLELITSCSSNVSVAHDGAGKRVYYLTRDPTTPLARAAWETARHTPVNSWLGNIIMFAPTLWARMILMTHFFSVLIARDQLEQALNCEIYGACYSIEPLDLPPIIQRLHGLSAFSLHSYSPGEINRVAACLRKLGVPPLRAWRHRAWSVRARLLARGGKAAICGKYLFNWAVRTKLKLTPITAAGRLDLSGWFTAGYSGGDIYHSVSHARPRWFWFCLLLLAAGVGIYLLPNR

Take `O=C1NC(=O)C(=Cc2ccc(OCCc3cccc4ccccc34)cc2)C(=O)N1` [Compound B]: the “Influence of pre-incubation time on inhibitory effect (FIG. 5)” value (shortened to “Influence … on inhibitory effect (FIG. 5)”) in assay [1] is “inhibitory effect decreased with increasing pre-incubation time”. For the same compound, in assay [2], the “Inhibitory rate, treatment of pre-incubation +” value (“Inhibitory rate, treatment” for short) is 20%.
For `Cc1oc(-c2ccccc2)nc1CCOc1ccc(C=C2C(=O)NC(=O)NC2=O)cc1` [Compound A] the same measures were “inhibitory effect decreased with increasing pre-incubation time” and 24%.
Consider `O=c1ccn([C@@H]2O[C@H](COP(=O)(O)OP(=O)(O)OP(=O)(O)O)C[C@H]2O)c(=O)[nH]1` [3′-dUTP, 3′-deoxyuridine triphosphate], for which the “Influence of pre-incubation on inhibitory effect at 2° C., 20° C. and 25° C. (FIG. 6, FIG. 7)” value in assay [1] (0 to 100 min) is on record as “not influence by pre-incubation at any temperatures”. In assay [1], the “Influence … on inhibitory effect (FIG. 5)” value is given as “not a large influence by pre-incubation”. The “Inhibitory rate, treatment” value in assay [2] is reported as 50%.
Regarding `O=C(O)/C(O)=C/C(=O)c1cccc(O)c1` [Compound I-1], the “Influence of pre-incubation on inhibitory effect at 2° C., 20° C. and 25° C. (FIG. 6, FIG. 7)” value in assay [1] (0 to 100 min) is on record as “not influence by pre-incubation at any temperatures”. Also, the inhibition at 0.5 µg/mL in assay [2] (read-out: Inhibitory rate, treatment of pre-incubation +) came out at 52%.
Take `CCCCC1=N/C(=C\c2ccccc2OCC(=O)O)C(=O)N1Cc1ccc(-c2ccccc2-c2nnn[nH]2)cc1` [Compound C]: the “Influence of pre-incubation on inhibitory effect at 2° C. (FIG. 8)” value in assay [1] (pre-incubation temperature 2° C., 0 to 100 min) was “did not appear clear influence”. For the same compound, in assay [1] (pre-incubation temperature 20° C. and 25° C., 0 to 100 min), the “Influence of pre-incubation on inhibitory effect at 20° C. and 25° C. (FIG. 8)” value is “inhibitory effect decreased greatly”. The “Influence … on inhibitory effect (FIG. 5)” value in assay [1] is “inhibitory effect decreased with increasing pre-incubation time”. For the same compound, the “Inhibitory rate, treatment” value in assay [2] is 15%.

(Values after patent publication US7018796B2, “Preincubation assay methods” (Shionogi & Co., Ltd., priority 2000, dated 2006).)
